From PubChem BioAssay AID1963447 (Molecular Pharmacology Branch, DTP, NCI, 2024)
pIC50: −log10 of the molar value.

Tested on: 885512-296-R-J2-PDC complex spheroid growth, % test/control
Assay: Anticancer human tumor 885512-296-R-J2-PDC patient-derived breast carcinoma cell line growth inhibition [Asc]
Conditions: for pIC50: curve of first compound; for viability, T/C: stronger effect = lower value
In short: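 Complex solid-tumor spheroids incorporating human endothelial and mesenchymal stem cells received single agents or combinations over half-log dilution ranges anchored to clinical Cmax.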

[1] = second compound 0.01 µM, first compound 0.0316 µM
[2] = second compound 0.01 µM, first compound 0.1 µM
[3] = second compound 0.0316 µM, first compound 0.0316 µM
[4] = second compound 0.0316 µM, first compound 0.1 µM
[5] = second compound 0.1 µM, first compound 0.0316 µM
[6] = second compound 0.1 µM, first compound 0.1 µM
[7] = second compound 0.316 µM, first compound 0.0316 µM
[8] = second compound 0.316 µM, first compound 0.1 µM
[9] = second compound 1 µM, first compound 0.0316 µM
[10] = second compound 1 µM, first compound 0.1 µM
[11] = second compound 0.01 µM, first compound 0.316 µM
[12] = second compound 0.01 µM, first compound 1 µM
[13] = second compound 0.01 µM, first compound 3.16 µM
[14] = second compound 0.01 µM, first compound 10 µM
[15] = second compound 0.0316 µM, first compound 0.316 µM
[16] = second compound 0.0316 µM, first compound 1 µM
[17] = second compound 0.0316 µM, first compound 3.16 µM
[18] = second compound 0.0316 µM, first compound 10 µM
[19] = second compound 0.1 µM, first compound 0.316 µM
[20] = second compound 0.1 µM, first compound 1 µM
[21] = second compound 0.1 µM, first compound 3.16 µM
[22] = second compound 0.1 µM, first compound 10 µM
[23] = second compound 0.316 µM, first compound 0.316 µM
[24] = second compound 0.316 µM, first compound 1 µM
[25] = second compound 0.316 µM, first compound 3.16 µM
[26] = second compound 0.316 µM, first compound 10 µM
[27] = second compound 1 µM, first compound 0.316 µM
[28] = second compound 1 µM, first compound 1 µM
[29] = second compound 1 µM, first compound 3.16 µM
[30] = second compound 1 µM, first compound 10 µM
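Also: spheroids exposed to compounds for seven days.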
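For viability, T/C in this document: 100% = DMSO vehicle control wells.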

SMILES: NC1CCC(NC2CC2c2ccccc2)CC1 (stereo not given) + CNC(C)C(=O)NC1CN(S(=O)(=O)c2cccc(S(=O)(=O)N3CCC4CCC(C(=O)NC(c5ccccc5)c5ccccc5)N4C(=O)C(NC(=O)C(C)NC)C3)c2)CCC2CCC(C(=O)NC(c3ccccc3)c3ccccc3)N2C1=O
- pIC50 (second compound 0.01 µM): < 7.00
- pIC50 (second compound 0.0316 µM): < 7.00
- pIC50 (second compound 0.1 µM): < 7.00
- pIC50 (second compound 0.316 µM): < 7.00
- pIC50 (second compound 1 µM): < 7.00
- viability, T/C (second compound 0.01 µM, first compound 0.000316 µM): 114%
- viability, T/C (second compound 0.01 µM, first compound 0.001 µM): 116%
- viability, T/C (second compound 0.01 µM, first compound 0.00316 µM): 111%
- viability, T/C (second compound 0.01 µM, first compound 0.01 µM): 105%
- viability, T/C [1]: 111%
- viability, T/C [2]: 113%
- viability, T/C (second compound 0.0316 µM, first compound 0.000316 µM): 107%
- viability, T/C (second compound 0.0316 µM, first compound 0.001 µM): 112%
- viability, T/C (second compound 0.0316 µM, first compound 0.00316 µM): 107%
- viability, T/C (second compound 0.0316 µM, first compound 0.01 µM): 113%
- viability, T/C [3]: 110%
- viability, T/C [4]: 110%
- viability, T/C (second compound 0.1 µM, first compound 0.000316 µM): 107%
- viability, T/C (second compound 0.1 µM, first compound 0.001 µM): 91%
- viability, T/C (second compound 0.1 µM, first compound 0.00316 µM): 109%
- viability, T/C (second compound 0.1 µM, first compound 0.01 µM): 106%
- viability, T/C [5]: 104%
- viability, T/C [6]: 111%
- viability, T/C (second compound 0.316 µM, first compound 0.000316 µM): 108%
- viability, T/C (second compound 0.316 µM, first compound 0.001 µM): 110%
- viability, T/C (second compound 0.316 µM, first compound 0.00316 µM): 112%
- viability, T/C (second compound 0.316 µM, first compound 0.01 µM): 105%
- viability, T/C [7]: 108%
- viability, T/C [8]: 110%
- viability, T/C (second compound 1 µM, first compound 0.000316 µM): 111%
- viability, T/C (second compound 1 µM, first compound 0.001 µM): 104%
- viability, T/C (second compound 1 µM, first compound 0.00316 µM): 110%
- viability, T/C (second compound 1 µM, first compound 0.01 µM): 98.6%
- viability, T/C [9]: 105%
- viability, T/C [10]: 109%

SMILES: C=C(F)C(=O)N1CCN(c2nc(OCC3CCCN3C)nc3c2CCN(c2cccc4cccc(Cl)c24)C3)CC1CC#N (stereo not given) + CNC(C)C(=O)NC1CN(S(=O)(=O)c2cccc(S(=O)(=O)N3CCC4CCC(C(=O)NC(c5ccccc5)c5ccccc5)N4C(=O)C(NC(=O)C(C)NC)C3)c2)CCC2CCC(C(=O)NC(c3ccccc3)c3ccccc3)N2C1=O
- pIC50 (second compound 0.01 µM): 5.58
- pIC50 (second compound 0.0316 µM): 5.64
- pIC50 (second compound 0.1 µM): 5.61
- pIC50 (second compound 0.316 µM): 5.65
- pIC50 (second compound 1 µM): 5.65
- viability, T/C [1]: 88.6%
- viability, T/C [2]: 91.8%
- viability, T/C [11]: 95.7%
- viability, T/C [12]: 84.8%
- viability, T/C [13]: 43.8%
- viability, T/C [14]: 0.11%
- viability, T/C [3]: 100%
- viability, T/C [4]: 101%
- viability, T/C [15]: 100%
- viability, T/C [16]: 99.7%
- viability, T/C [17]: 30.7%
- viability, T/C [18]: 0.3%
- viability, T/C [5]: 105%
- viability, T/C [6]: 102%
- viability, T/C [19]: 102%
- viability, T/C [20]: 104%
- viability, T/C [21]: 34.9%
- viability, T/C [22]: 0.09%
- viability, T/C [7]: 110%
- viability, T/C [8]: 103%
- viability, T/C [23]: 113%
- viability, T/C [24]: 103%
- viability, T/C [25]: 27.5%
- viability, T/C [26]: 0.09%
- viability, T/C [9]: 114%
- viability, T/C [10]: 113%
- viability, T/C [27]: 115%
- viability, T/C [28]: 95.3%
- viability, T/C [29]: 30.5%
- viability, T/C [30]: 0.38%

SMILES: C=C(F)C(=O)N1CCN(c2nc(OCC3CCCN3C)nc3c2CCN(c2cccc4cccc(Cl)c24)C3)CC1CC#N (stereo not given) + CCN1C(C(=O)NC23CCC(C(=O)O)(CC2)CC3)C(c2cccc(Cl)c2F)C2(C(=O)Nc3cc(Cl)ccc32)C12CCCCC2
- pIC50 (second compound 0.03 µM): 5.64
- pIC50 (second compound 0.0949 µM): 5.61
- pIC50 (second compound 0.3 µM): 5.65
- pIC50 (second compound 0.949 µM): 5.72
- pIC50 (second compound 3 µM): 5.98
- viability, T/C (second compound 0.03 µM, first compound 0.0316 µM): 96.3%
- viability, T/C (second compound 0.03 µM, first compound 0.1 µM): 110%
- viability, T/C (second compound 0.03 µM, first compound 0.316 µM): 101%
- viability, T/C (second compound 0.03 µM, first compound 1 µM): 110%
- viability, T/C (second compound 0.03 µM, first compound 3.16 µM): 28.6%
- viability, T/C (second compound 0.03 µM, first compound 10 µM): 0.11%
- viability, T/C (second compound 0.0949 µM, first compound 0.0316 µM): 118%
- viability, T/C (second compound 0.0949 µM, first compound 0.1 µM): 117%
- viability, T/C (second compound 0.0949 µM, first compound 0.316 µM): 120%
- viability, T/C (second compound 0.0949 µM, first compound 1 µM): 107%
- viability, T/C (second compound 0.0949 µM, first compound 3.16 µM): 34%
- viability, T/C (second compound 0.0949 µM, first compound 10 µM): 0.38%
- viability, T/C (second compound 0.3 µM, first compound 0.0316 µM): 94%
- viability, T/C (second compound 0.3 µM, first compound 0.1 µM): 95.1%
- viability, T/C (second compound 0.3 µM, first compound 0.316 µM): 98.2%
- viability, T/C (second compound 0.3 µM, first compound 1 µM): 102%
- viability, T/C (second compound 0.3 µM, first compound 3.16 µM): 29.5%
- viability, T/C (second compound 0.3 µM, first compound 10 µM): 0.1%
- viability, T/C (second compound 0.949 µM, first compound 0.0316 µM): 69%
- viability, T/C (second compound 0.949 µM, first compound 0.1 µM): 72%
- viability, T/C (second compound 0.949 µM, first compound 0.316 µM): 76.9%
- viability, T/C (second compound 0.949 µM, first compound 1 µM): 90.1%
- viability, T/C (second compound 0.949 µM, first compound 3.16 µM): 28.6%
- viability, T/C (second compound 0.949 µM, first compound 10 µM): 0.1%
- viability, T/C (second compound 3 µM, first compound 0.0316 µM): 43%
- viability, T/C (second compound 3 µM, first compound 0.1 µM): 43.3%
- viability, T/C (second compound 3 µM, first compound 0.316 µM): 51.5%
- viability, T/C (second compound 3 µM, first compound 1 µM): 67.5%
- viability, T/C (second compound 3 µM, first compound 3.16 µM): 19.8%
- viability, T/C (second compound 3 µM, first compound 10 µM): 0.15%

SMILES: C=CC(=O)N1CCN(c2nc(=O)n(-c3c(C)ccnc3C(C)C)c3nc(-c4c(O)cccc4F)c(F)cc23)C(C)C1 (stereo not given) + CNC(C)C(=O)NC1CN(S(=O)(=O)c2cccc(S(=O)(=O)N3CCC4CCC(C(=O)NC(c5ccccc5)c5ccccc5)N4C(=O)C(NC(=O)C(C)NC)C3)c2)CCC2CCC(C(=O)NC(c3ccccc3)c3ccccc3)N2C1=O
- pIC50 (second compound 0.01 µM): < 5.00
- pIC50 (second compound 0.0316 µM): < 5.00
- pIC50 (second compound 0.1 µM): < 5.00
- pIC50 (second compound 0.316 µM): < 5.00
- pIC50 (second compound 1 µM): < 5.00
- viability, T/C [1]: 88.2%
- viability, T/C [2]: 80.9%
- viability, T/C [11]: 101%
- viability, T/C [12]: 81.3%
- viability, T/C [13]: 90.6%
- viability, T/C [14]: 64.2%
- viability, T/C [3]: 90.3%
- viability, T/C [4]: 104%
- viability, T/C [15]: 96.6%
- viability, T/C [16]: 97.2%
- viability, T/C [17]: 92.6%
- viability, T/C [18]: 68.5%
- viability, T/C [5]: 111%
- viability, T/C [6]: 109%
- viability, T/C [19]: 98%
- viability, T/C [20]: 98.6%
- viability, T/C [21]: 87.7%
- viability, T/C [22]: 66.8%
- viability, T/C [7]: 104%
- viability, T/C [8]: 106%
- viability, T/C [23]: 98.8%
- viability, T/C [24]: 100%
- viability, T/C [25]: 84.4%
- viability, T/C [26]: 68.6%
- viability, T/C [9]: 105%
- viability, T/C [10]: 103%
- viability, T/C [27]: 104%
- viability, T/C [28]: 109%
- viability, T/C [29]: 79.2%
- viability, T/C [30]: 59%
